Key:
MMP-12 catalytic domain = target: T1, MMP-12 catalytic domain (Homo sapiens, UniProt P39900); experiment: Assay for inhibitory activities on MMPs (fluorogenic peptide substrate): MMP-12; format: biochemical; settings: substrate MOCAc-Pro-Leu-Gly-Leu-A2Pr(DNP)-Ala-Arg-NH2
T1 construct: catalytic domain(^100Phe˜^263Gly); His-tag; enterokinase digestion-site; made in house; host or cells: Escherichia coli
Method: (§1) In regard to MMP-12, catalytic domain(^100Phe˜^263Gly) was amplified with RT-PCR from Human Placenta Total RNA. This was cloned in Escherichia coli expression vector pTrc99AHE inserted with His-tag sequence and enterokinase digestion-site, induced and expressed by IPTG (Isopropyl-β-D-thiogalactopyranoside) and expressed in a insoluble fraction. Isolation of MMP-12 from a insoluble fraction was carried out by dissolving in modifier (6M urea) by a usual method and purification with metal chelate chromatography (Ni Chelateing Sepharose). And then removing modifier (6M urea) with dialysis and refolding of the enzyme spontaneously gave activated MMP-12.
(§2) The enzymatic activity on MMPs was analyzed by the method described in “C. Graham Knight, Frances Willenbrock and Gillian Murphy: A novel coumarin-labelled peptide for sensitive continuous assays of the matrix metalloproteinases: FEBS LETT., 296, (1992), 263-266”. The substrate: MOCAc-Pro-Leu-Gly-Leu-A2Pr(DNP)-Ala-Arg-NH2 was purchased from Peptide Institute, Inc., Osaka, Japan. The measurement of the inhibitory activities (IC50) was carried out by the following four methods;
(§3) (A) Reaction with substrate, enzyme (MMPs) and inhibitor
(§4) (B) Reaction with substrate and inhibitor, without enzyme
(§5) (C) Reaction with substrate and enzyme (MMPs), without inhibitor
(§6) (D) Reaction with substrate only
(§7) IC50 values were calculated by using the following formula and each fluorescence values of above four methods (A to D).
(§8) % inhibition={1−(A−B)/(C−D)}×100
(§9) IC50 means the concentration required to inhibit 50% of the enzyme activity.

MMP-9 = target: T2, MMP-9 (Homo sapiens, UniProt P14780); experiment: Assay for inhibitory activities on MMPs (fluorogenic peptide substrate): MMP-9; format: biochemical; settings: substrate MOCAc-Pro-Leu-Gly-Leu-A2Pr(DNP)-Ala-Arg-NH2
T2 construct: endogenous in cells; host or cells: HT1080 human fibrosarcoma cells, TPA-stimulated; purified in house from conditioned medium
T2 sequence (P14780 107-707 limits assumed): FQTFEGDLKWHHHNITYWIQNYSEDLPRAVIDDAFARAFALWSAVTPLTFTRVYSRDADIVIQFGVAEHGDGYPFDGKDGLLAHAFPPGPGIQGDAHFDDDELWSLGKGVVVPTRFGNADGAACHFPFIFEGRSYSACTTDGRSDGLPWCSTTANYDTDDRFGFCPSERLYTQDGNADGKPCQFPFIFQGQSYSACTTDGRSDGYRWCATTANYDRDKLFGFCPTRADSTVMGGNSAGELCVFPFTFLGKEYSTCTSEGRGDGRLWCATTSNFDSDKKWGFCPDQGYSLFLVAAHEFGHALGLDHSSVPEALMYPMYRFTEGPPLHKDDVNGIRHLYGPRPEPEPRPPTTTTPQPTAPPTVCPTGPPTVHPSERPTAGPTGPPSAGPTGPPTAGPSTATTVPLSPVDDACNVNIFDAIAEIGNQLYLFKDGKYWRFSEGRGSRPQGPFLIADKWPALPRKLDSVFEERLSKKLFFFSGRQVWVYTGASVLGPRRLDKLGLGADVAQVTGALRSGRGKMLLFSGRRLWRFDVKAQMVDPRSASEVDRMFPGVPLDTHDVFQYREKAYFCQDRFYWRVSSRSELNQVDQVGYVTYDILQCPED
Source text: MMP-9 was isolated and purified by using a combination of procedures described in previous reports as follows. Yasunori Okada, Yukio Gonoji, Katsumi Naka, Katsuro Tomita, Isao Nakanishi, Kazushi Iwata, Kyoko Yamashita, and Taro Hayakawa: Matrix metalloproteinase 9 (92-kDa gelatinase/type IV collagenase) from HT1080 human fibrosarcoma cells. Purification and activation of the precursor and enzymic properties. J. Biol. Chem., 267 (1.992) 21712-21719. Yasunori Okada, Tatsuhisa Morodomi, Jan J, Enghild, Ko Suzuki, Atsushi Yasui, Isao Nakanishi, Guy Salvesen and Hideaki Nagase: Matrix metalloproteinase 2 from human rheumatoid synovial fibroblasts. Purification and activation of the precursor and enzymic properties. Eur. J. Biochem. 194 (1990) 721-730. Robin V Ward, Rosalind M Hembry, John J Reynolds and Gillian Murphy: The purification of tissue inhibitor of metalloproteinase-2 from its 72 kDa progelatinase complex. Biochem. J. 278 (1991) 179-187.
Briefly, human fibrosarcoma ATCC HT1080 cell line was cultured to confluent in Dulbecco's Modified Medium (DMEM) containing 10% fetal-calf serum at 37° C. for 48 hours. Subsequently, the medium of confluent culture was changed to serum-free DMEM medium. To obtain MMP-9, Phorbol-12-myristate-13-acetate (TPA) must be added to this serum-free DMEM medium at a concentration of 50 ng/ml. The TPA treated medium was centrifuged at 3000 rpm for 15 min and the supernatant was concentrated to 450 ml by a Toyo-Roshi UP-20 apparatus with an ultrafiltration membrane. Then, proMMP-9 in this concentrated solution was purified by using columns of Gelatin-Sepharose and Concanavalin A-Sepharose. The pool containing proMMP-9 was dialyzed, concentrated (Toyo-Roshi UP-20) and applied to columns of Sephacryl S-200 and Green A matrix for the separation from TIMPs. The obtained proMMP-9 fraction was activated by TPCK-Trypsin (final conc. […] reaction mix.).
as §2, §3, §4, §5, §6, §7, §8, §9

MMP-2 = target: T3, MMP-2 (Homo sapiens, UniProt P08253); experiment: Assay for inhibitory activities on MMPs (fluorogenic peptide substrate): MMP-2; format: biochemical; settings: substrate MOCAc-Pro-Leu-Gly-Leu-A2Pr(DNP)-Ala-Arg-NH2
T3 construct: purchased Calbiochem-Novabiochem International, Inc
T3 sequence (P08253 110-660): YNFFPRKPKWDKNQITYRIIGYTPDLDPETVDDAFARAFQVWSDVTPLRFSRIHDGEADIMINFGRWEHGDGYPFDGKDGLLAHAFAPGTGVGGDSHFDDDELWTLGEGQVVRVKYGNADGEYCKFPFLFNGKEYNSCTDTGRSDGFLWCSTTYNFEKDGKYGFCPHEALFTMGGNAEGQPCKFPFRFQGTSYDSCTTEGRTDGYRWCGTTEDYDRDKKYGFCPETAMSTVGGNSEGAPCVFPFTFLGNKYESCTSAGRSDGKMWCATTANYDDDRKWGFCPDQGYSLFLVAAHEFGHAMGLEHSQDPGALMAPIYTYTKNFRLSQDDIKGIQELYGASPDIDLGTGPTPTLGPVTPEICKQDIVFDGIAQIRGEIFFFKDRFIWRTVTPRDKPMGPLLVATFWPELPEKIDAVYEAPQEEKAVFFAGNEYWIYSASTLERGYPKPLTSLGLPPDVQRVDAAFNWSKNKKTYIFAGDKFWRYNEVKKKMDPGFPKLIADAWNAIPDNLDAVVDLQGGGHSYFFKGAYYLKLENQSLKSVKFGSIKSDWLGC
Method: MMP-2 was purchased from Calbiochem-Novabiochem International, Inc.
as §2, §3, §4, §5, §6, §7, §8, §9

MMP-8 catalytic domain = target: T4, MMP-8 catalytic domain (Homo sapiens, UniProt P22894); experiment: Assay for inhibitory activities on MMPs (fluorogenic peptide substrate): MMP-8; format: biochemical; settings: substrate MOCAc-Pro-Leu-Gly-Leu-A2Pr(DNP)-Ala-Arg-NH2
T4 construct: catalytic domain (^99Phe˜^262Gly); His-tag; enterokinase digestion-site; made in house; host or cells: Escherichia coli
T4 sequence (P22894 99-262): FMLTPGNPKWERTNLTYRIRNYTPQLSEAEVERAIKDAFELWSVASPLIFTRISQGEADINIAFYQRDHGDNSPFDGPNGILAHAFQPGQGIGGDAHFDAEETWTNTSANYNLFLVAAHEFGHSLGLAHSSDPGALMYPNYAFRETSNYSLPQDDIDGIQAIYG
Source text: In regard to MMP-8, catalytic domain (^99Phe˜^262Gly) was amplified with PCR using commercial available Human Bone Marrow cDNA. This was cloned in Escherichia. coli expression vector pTrc99AHE inserted with His-tag sequence and enterokinase digestion-site, induced and expressed by IPTG (Isopropyl-β-D-thiogalactopyranoside) and expressed in a insoluble fraction (Than F. Ho, M. Walid Qoronfleh, Robert C. Wahl, Trica A. Pulvino, Karen J. Vavra, Joe Falvo, Tracey M. Banks, Patricia G. Brake and Richard B. Ciccarelli: Gene expression, purification and characterization of recombinant human neutrophil collagenase. Gene 146, (1994) 297-301, Prepared by the a improved method of this material). Isolation of MMP-8 from insoluble fraction was carried out by dissolving in modifier (6M urea) by a usual method and purification with metal chelate chromatography. And then removing modifier (6M urea) with dialysis and refolding of the enzyme spontaneously gave activated MMP-8.
as §2, §3, §4, §5, §6, §7, §8, §9

MMP-13 catalytic domain = target: T5, MMP-13 catalytic domain (Homo sapiens, UniProt P45452); experiment: Assay for inhibitory activities on MMPs (fluorogenic peptide substrate): MMP-13; format: biochemical; settings: substrate MOCAc-Pro-Leu-Gly-Leu-A2Pr(DNP)-Ala-Arg-NH2
T5 construct: catalytic domain (^104Tyr˜^267Gly); His-tag; enterokinase digestion-site; made in house; host or cells: Escherichia coli
Method: as §1, with “MMP-13, mRNA was prepared from carcinoma cell SW1353 derived from human cartilage stimulate by IL-1, TNF and” for “MMP-12,”, “domain (^104Tyr˜^267Gly)” for “domain(^100Phe˜^263Gly)”, “RT-PCR.” for “RT-PCR from Human Placenta Total RNA.”, “MMP-1.3” for “MMP-12”, “dialyze” for “dialysis”, “MMP-13.” for “MMP-12.”
as §2, §3, §4, §5, §6, §7, §8, §9

MMP-1 = target: T6, MMP-1 (Homo sapiens, UniProt P03956); experiment: Assay for inhibitory activities on MMPs (fluorogenic peptide substrate): MMP-1; format: biochemical; settings: substrate MOCAc-Pro-Leu-Gly-Leu-A2Pr(DNP)-Ala-Arg-NH2
T6 construct: purchased Yagai
T6 sequence (P03956 100-469): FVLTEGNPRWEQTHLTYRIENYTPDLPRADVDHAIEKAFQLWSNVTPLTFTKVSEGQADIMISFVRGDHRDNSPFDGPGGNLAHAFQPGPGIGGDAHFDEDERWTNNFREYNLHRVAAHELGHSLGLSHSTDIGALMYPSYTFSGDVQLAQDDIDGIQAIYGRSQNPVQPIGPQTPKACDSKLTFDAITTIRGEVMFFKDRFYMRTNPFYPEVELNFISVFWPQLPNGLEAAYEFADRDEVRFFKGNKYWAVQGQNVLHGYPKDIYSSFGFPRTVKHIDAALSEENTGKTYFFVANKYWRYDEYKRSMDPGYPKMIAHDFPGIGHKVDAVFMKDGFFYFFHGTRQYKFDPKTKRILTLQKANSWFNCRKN
Method: MMP-1 was purchased from Yagai.
as §2, §3, §4, §5, §6, §7, §8, §9

T1 sequence (P39900 100-263): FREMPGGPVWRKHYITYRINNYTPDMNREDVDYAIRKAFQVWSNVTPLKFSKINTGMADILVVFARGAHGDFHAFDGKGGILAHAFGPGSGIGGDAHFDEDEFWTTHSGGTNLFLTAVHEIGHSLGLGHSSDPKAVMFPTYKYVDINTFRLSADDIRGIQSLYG

Compound | IC50 (MMP-12 catalytic domain) [nM] | IC50 (MMP-9) [nM] | IC50 (MMP-2) [nM] | IC50 (MMP-8 catalytic domain) [nM] | IC50 (MMP-13 catalytic domain) [nM] | IC50 (MMP-1) [nM] | melting point [°C]
O=C(O)[C@H](Cc1ccccc1)NS(=O)(=O)c1ccc(C#Cc2ccc3ccccc3c2)s1 [Compound B-2] | 240 | > 10000 | > 10000 | > 10000 | > 10000 | > 10000 | –
CC(C)[C@@H](NS(=O)(=O)c1ccc(C#Cc2ccc3ccccc3c2)s1)C(=O)O [Compound B-4] | 11 | 530 | 240 | 540 | 640 | > 10000 | –
O=C(O)[C@@H](Cc1ccccc1)NS(=O)(=O)c1ccc(C#Cc2ccc3ccccc3c2)cc1 [Compound A-2] | 16 | > 10000 | > 10000 | > 10000 | > 10000 | > 10000 | –
CC(C)C[C@@H](NS(=O)(=O)c1ccc(C#Cc2ccc3ccccc3c2)cc1)C(=O)O [Compound A-10] | 58 | 1440 | 370 | 4380 | 1550 | > 10000 | –
CC(C)[C@H](NS(=O)(=O)c1ccc(C#Cc2ccc3ccccc3c2)s1)C(=O)O [Compound B-5] | 82 | 3270 | 2230 | 2340 | 6900 | > 10000 | –
CC(C)[C@@H](NS(=O)(=O)c1ccc(C#Cc2ccc3ccccc3c2)cc1)C(=O)O [Compound A-5] | 14 | 330 | 110 | 1060 | 340 | > 10000 | –
O=C(O)[C@@H](Cc1ccccc1)NS(=O)(=O)c1ccc(C#Cc2ccc3ccccc3c2)s1 [Compound B-1] | 42 | > 10000 | 820 | > 10000 | > 10000 | > 10000 | –
O=C(O)[C@H](Cc1ccccc1)NS(=O)(=O)c1ccc(-n2nnc(-c3ccc4ccccc4c3)n2)cc1 [Compound C-2] | 140 | > 10000 | > 10000 | > 10000 | > 10000 | > 10000 | –
O=C(O)[C@H](NS(=O)(=O)c1ccc(C#Cc2ccc3ccccc3c2)s1)c1ccc(O)cc1 [Compound B-8] | 48 | 2110 | 1120 | 2650 | 2300 | > 10000 | –
O=C(O)[C@H](Cc1c[nH]c2ccccc12)NS(=O)(=O)c1ccc(C#Cc2ccc3ccccc3c2)cc1 [Compound A-15] | 32 | 900 | 460 | > 10000 | 890 | > 10000 | –
CC(C)[C@H](NS(=O)(=O)c1ccc(C#Cc2ccc3ccccc3c2)cc1)C(=O)O [Compound A-1] | 7.6 | 770 | 400 | 570 | 300 | > 10000 | 171 to 173
CSCC[C@H](NS(=O)(=O)c1ccc(C#Cc2ccc3ccccc3c2)s1)C(=O)O [Compound B-11] | 110 | 4900 | 1860 | 2890 | 6140 | > 10000 | –
O=C(O)CNS(=O)(=O)c1ccc(C#Cc2ccc3ccccc3c2)s1 [Compound B-9] | 260 | 4230 | 1270 | > 10000 | 7180 | > 10000 | –
